Experimental data reported in patent US20250206740A1, “PIPERIDINYL-METHYLPURINE PYRIMIDINES AND RELATED COMPOUNDS AND THEIR USE IN TREATING DISEASES AND CONDITIONS” (K36 Therapeutics, Inc., priority 2022, published 2025).

Biological target: recombinant human NSD2 (Homo sapiens (Human), UniProt O96028)
Experiment: NSD2 inhibitory activity, modified RBC HotSpot HMT Assay (radiometric, 3H-SAM, oligonucleosome substrate)
Format: biochemical
Settings: recombinant human NSD2 2 nM, oligonucleosomes from Chicken 0.05 mg/ml, 3H-SAM 1 μM, 1 hour at 30° C.
Protocol: Exemplary compounds were tested for NSD2 inhibitory activity using a modified RBC HotSpot HMT Assay.
A reaction mixture was prepared by adding oligonucleosomes from Chicken (0.05 mg/ml) to freshly prepared reaction buffer containing 50 mM Tris-HCl (pH 8.5), 50 mM NaCl, 5 mM MgCl2, 0.01% Brij35, 1 mM DTT, and 1% DMSO followed by the addition of recombinant human NSD2, (amino acids 2-end) with N-terminal His tag (2 nM; GenBank Accession No. NM_001042424; MW=155.5 kDa; expressed in Sf9 insect cells) and gentle mixing. The test compounds were diluted in DMSO, added to the reaction mixture in nanoliter amounts by using Acoustic Technology (Echo 550, LabCyte Inc. Sunnyvale, CA) and incubated for 20 minutes at room temperature. The reaction was initiated by the addition of S-Adenosyl-L-[methyl-^3H] methionine (3H-SAM; 1 μM), and the mixture was incubated for 1 hour at 30° C. The reaction mixture was delivered to filter paper and the methylated substrate was quantified by scintillation counting. Data analysis was performed using Excel and GraphPad Prism software for IC50 curve fits. For additional information on the histone methyltransferase assay, see, for example, Horiuchi K Y, et al., “Assay Development for Histone Methyltransferases,” Assay Drug Dev Technol. 2013 May; 11 (4): 227-36.

Chain of recombinant human NSD2 (O96028 2-1365 limits assumed): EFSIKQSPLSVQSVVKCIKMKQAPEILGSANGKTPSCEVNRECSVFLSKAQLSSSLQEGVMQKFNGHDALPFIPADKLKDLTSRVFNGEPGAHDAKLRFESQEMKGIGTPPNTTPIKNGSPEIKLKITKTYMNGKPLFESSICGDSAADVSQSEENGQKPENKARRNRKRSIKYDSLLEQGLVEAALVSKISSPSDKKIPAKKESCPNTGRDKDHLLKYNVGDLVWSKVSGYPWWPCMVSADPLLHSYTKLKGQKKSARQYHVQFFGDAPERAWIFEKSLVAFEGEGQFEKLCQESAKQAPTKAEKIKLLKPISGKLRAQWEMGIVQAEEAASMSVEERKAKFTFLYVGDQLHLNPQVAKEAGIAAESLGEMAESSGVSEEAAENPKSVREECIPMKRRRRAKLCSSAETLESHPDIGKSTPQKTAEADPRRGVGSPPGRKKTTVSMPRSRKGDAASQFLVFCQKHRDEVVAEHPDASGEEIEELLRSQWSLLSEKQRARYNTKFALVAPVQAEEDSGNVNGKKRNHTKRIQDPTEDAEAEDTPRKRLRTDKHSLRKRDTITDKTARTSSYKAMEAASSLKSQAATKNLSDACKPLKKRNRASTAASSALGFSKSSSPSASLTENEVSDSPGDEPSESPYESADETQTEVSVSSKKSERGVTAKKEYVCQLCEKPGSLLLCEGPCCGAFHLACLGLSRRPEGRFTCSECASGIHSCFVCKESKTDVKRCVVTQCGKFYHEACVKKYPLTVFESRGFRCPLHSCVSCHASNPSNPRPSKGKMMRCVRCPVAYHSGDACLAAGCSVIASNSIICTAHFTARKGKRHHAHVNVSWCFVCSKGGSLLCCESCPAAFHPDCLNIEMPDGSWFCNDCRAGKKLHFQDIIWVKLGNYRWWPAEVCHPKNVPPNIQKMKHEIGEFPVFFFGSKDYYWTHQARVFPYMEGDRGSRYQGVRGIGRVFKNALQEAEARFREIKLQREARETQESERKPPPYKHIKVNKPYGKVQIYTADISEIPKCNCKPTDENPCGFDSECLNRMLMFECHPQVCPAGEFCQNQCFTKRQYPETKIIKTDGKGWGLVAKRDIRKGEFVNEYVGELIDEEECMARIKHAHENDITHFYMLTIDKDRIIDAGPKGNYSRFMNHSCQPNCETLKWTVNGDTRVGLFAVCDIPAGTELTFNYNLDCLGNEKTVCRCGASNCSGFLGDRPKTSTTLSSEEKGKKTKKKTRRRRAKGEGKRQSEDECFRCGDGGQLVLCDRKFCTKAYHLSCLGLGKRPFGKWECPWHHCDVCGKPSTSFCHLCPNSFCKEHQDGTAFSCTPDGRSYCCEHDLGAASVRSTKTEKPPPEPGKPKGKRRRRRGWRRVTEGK

| IC50 [nM] | SMILES |
| --- | --- |
| 10 to 100 | COc1cc(F)c(-c2nc(Cn3cnc4c(N)ncnc43)c(N3CCC[C@@](N)([C@H](O)C(F)F)C3)s2)cc1F [II-2] |
| 100 to 1000 | COc1cc(F)c(-c2cc(Cn3cnc4c(N)ncnc43)c(N3CCC[C@](N)([C@H](O)C(F)F)C3)nn2)cc1F [Compound I-6, (S)-1-((R)-3-amino-1-(4-((6-amino-9H-purin-9-yl)methyl)-6-(2,5-difluoro-4-methoxyphenyl)pyridazin-3-yl)piperidin-3-yl)-2,2-difluoroethan-1-ol] |
| 100 to 1000 | COc1cc(F)c(-c2ncc(N3CCC[C@](N)([C@H](O)C(F)F)C3)c(Cn3cnc4c(N)ncnc43)n2)cc1F [Compound I-1, (S)-1-((R)-3-amino-1-(4-((6-amino-9H-purin-9-yl)methyl)-2-(2,5-difluoro-4-methoxyphenyl)pyrimidin-5-yl)piperidin-3-yl)-2,2-difluoroethan-1-ol] |
